Results taken from US10836769B2, “Substituted pyrrolizine compounds and uses thereof” (Gilead Sciences, Inc., priority 2018, dated 2020).
pEC50: −log10 of the molar value. Values after ≈ are worked out from the molar mass of the structure shown. Like-named read-outs stand apart in the source and are kept apart here.

What was measured:
[1] = Kinetic Solubility; type: physicochemical; conditions: 0.2 to 100 μM, BD Gentest Solubility Scanner
Experimental: The 10 mM DMSO stock solution of the test compound is serially diluted into a 96-well “DMSO stock dilution plate”. Then Pipette 2 μL from the DMSO stock dilution plate into the “Sample plate” and dilute with 198 µL of the assay media to generate the final concentrations of the test compound ranging from 0.2 to 100 μM. The “Sample plate” is run on a BD Gentest Solubility Scanner.

[2] = tested on: HBV; assay: HBV DNA Quantification Assay; type: cell-based
Experimental: A HepG2 cell line overexpressing the HBV virus attachment receptor sodium-taurocholate cotransporting polypeptide (NTCP) was grown to confluency in DMEM growth medium, Dulbecco's Modified Eagle Medium without sodium pyruvate (Life Technologies, Rockville, Md.) supplemented with 10% FBS (Thermo Scientific, Waltham, Md.), 1% penicillin/streptomycin (Life Technologies, Rockville, Md.) and 2 mM L-glutamine (Life Technologies, Rockville, Md.) in T175 flasks. Cells were infected with HBV AD38 viral particles (Texcell, Frederick, USA) at 4000 genome equivalents per cell. After allowing viral infection to take place for 4 days, the infected cells were harvested from the flasks by trypsinization, washed twice with OptiMEM (Life Technologies, Rockville, Md.) and re-suspended in DMEM containing 2% FBS and 1% DMSO at a density of 0.25E6 cells/ml. Infected cells were seeded on 384 well collagen coated plates (Greiner, Austria) at a density of 20,000 cells/well containing serially diluted compounds of the present disclosure or DMSO (0.5%) in a final volume of 80 μl. The assay plates were incubated for a period of 5 days and the antiviral activity of the test compounds were assayed by detecting the presence of HBV DNA in the culture supernatant using the QuantiGene™ 2.0 nucleic acid quantification kit (Affymetrix, Santa Clara, Calif.).
The culture supernatant was harvested and treated with lysis buffer containing Proteinase K (Affymetrix, Santa Clara, Calif.). The supernatant was incubated with HBV viral DNA specific probes (Affymetrix, Santa Clara, Calif.) for 30 minutes at 55° C. This was followed by addition of 0.2M NaOH for 30 minutes at room temperature to denature the DNA, followed by addition of Neutralization buffer (Affymetrix, Santa Clara, Calif.). The resulting lysed and neutralized supernatant was then added to QuantiGene™ 2.0 384 well plates coated with capture oligonucleotides and incubated overnight at 55° C. The HBV specific probe set consists of Capture Extender oligonucleotides (CE's) and blocking probes. Following the overnight incubation, the wells were incubated for one hour sequentially with a Pre-Amplifier, Amplifier and Labeled probes conjugated to alkaline phosphatase with a wash step between incubations. After the final wash step, the alkaline phosphatase substrate (Luminol APS5) was added and the resulting luminescence signal was read in an EnVision Multilabel Plate Reader (PerkinElmer, Santa Clara, Calif.). The EC50 values were calculated from the fit of the dose-response curves to a four-parameter equation. All EC50 values represent geometric mean values of a minimum of four determinations.

[3] = aqueous buffer, kinetic from dmso stock, pH = 7, read-out: Kinetic Solubility at pH = 7
[4] = simulated gastric fluid, kinetic from dmso stock, pH = 1, read-out: Kinetic Solubility at pH = 1
[5] = Hepatitis B virus, 120 h, HepG2 cell line overexpressing NTCP infected with HBV AD38 viral particles, HBV DNA in culture supernatant after 5 days, geometric mean of a minimum of four determinations, read-out: EC50

| SMILES | solubility kinetic [1, 3] | solubility kinetic [1, 4] | pEC50 [2, 5] | also measured |
| --- | --- | --- | --- | --- |
| Cc1c(C(=O)Nc2ccc(F)c(F)c2)c2n(c1C(=O)C(=O)NC1(C(N)=O)CC(F)(F)C1)CCC2 [Example 44, 5-(2-((1-carbamoyl-3,3-difluorocyclobutyl)amino)-2-oxoacetyl)-N-(3,4-difluorophenyl)-6-methyl-2,3-dihydro-1H-pyrrolizine-7-carboxamide] | 49.8 µM (≈ 23.9 µg/mL) | 90.3 µM (≈ 43.4 µg/mL) | 7.82 | – |
| Cc1c(C(=O)Nc2ccc(F)c(C#N)c2)c2n(c1C(=O)C(=O)NC1(c3cn(C)nn3)CC(F)(F)C1)CCC2 [Example 5, N-(3-cyano-4-fluorophenyl)-5-(2-((3,3-difluoro-1-(1-methyl-1H-1,2,3-triazol-4-yl)cyclobutyl)amino)-2-oxoacetyl)-6-methyl-2,3-dihydro-1H-pyrrolizine-7-carboxamide] | 20.7 µM (≈ 10.9 µg/mL) | 11.3 µM (≈ 5.94 µg/mL) | 7.36 | – |
| Cc1c(C(=O)Nc2ccc(F)c(F)c2)c2n(c1C(=O)C(=O)NC1(c3cnn[nH]3)CC(F)(F)C1)C[C@@H]1C[C@H]21 [Example 21] | 57.6 µM (≈ 29.7 µg/mL) | 64.7 µM (≈ 33.4 µg/mL) | 8.41 | – |
| CNC(=O)C1(NC(=O)C(=O)c2c(C)c(C(=O)Nc3ccc(F)c(C(F)F)c3)c3n2CCC3)CC(F)(F)C1 [Example 41] | > 100 µM | > 100 µM | 7.68 | – |
| Cc1c(C(=O)Nc2ccc(F)c(C(F)F)c2)c2n(c1C(=O)C(=O)NC1(c3nncs3)CC(F)(F)C1)CCC2 [Example 49, 5-(2-((3,3-difluoro-1-(1,3,4-thiadiazol-2-yl)cyclobutyl)amino)-2-oxoacetyl)-N-(3-(difluoromethyl)-4-fluorophenyl)-6-methyl-2,3-dihydro-1H-pyrrolizine-7-carboxamide] | – | – | 8.49 | – |
| CNC(=O)C1(NC(=O)C(=O)c2c(C)c(C(=O)Nc3ccc(F)c(F)c3)c3n2CCC3)COC1 [Example 38, N-(3,4-difluorophenyl)-6-methyl-5-(2-((3-(methylcarbamoyl)oxetan-3-yl)amino)-2-oxoacetyl)-2,3-dihydro-1H-pyrrolizine-7-carboxamide] | 86.7 µM (≈ 39.9 µg/mL) | 88.7 µM (≈ 40.8 µg/mL) | 7.06 | – |
| Cc1c(C(=O)Nc2ccc(F)cc2)c2n(c1C(=O)C(=O)NC1(c3cn(C)nn3)CC(F)(F)C1)CCC2 [Example 10] | – | – | – | solubility kinetic ([1]; pH = 1, read-out: Kinetic Solubility at pH = 1): 1.4 µM (≈ 0.701 µg/mL); solubility kinetic ([1]; pH = 7, read-out: Kinetic Solubility at pH = 7): 52.8 µM (≈ 26.4 µg/mL); pEC50 ([2]; HepG2 cell line overexpressing NTCP infected with HBV AD38 viral particles, HBV DNA in culture supernatant after 5 days, geometric mean of a minimum of four determinations, read-out: EC50): 7.48 |
| Cc1c(C(=O)Nc2ccc(F)c(C#N)c2)c2n(c1C(=O)C(=O)NC1(c3nncs3)CC(F)(F)C1)CCC2 [Example 2] | 7.4 µM (≈ 3.91 µg/mL) | 7.8 µM (≈ 4.12 µg/mL) | 8.32 | – |
| CNC(=O)C1(NC(=O)C(=O)c2c(C)c(C(=O)Nc3cc(F)c(F)c(F)c3)c3n2CCC3)CC(F)(F)C1 [Example 42, 5-(2-((3,3-difluoro-1-(methylcarbamoyl)cyclobutyl)amino)-2-oxoacetyl)-6-methyl-N-(3,4,5-trifluorophenyl)-2,3-dihydro-1H-pyrrolizine-7-carboxamide] | 29.6 µM (≈ 15.2 µg/mL) | 37.5 µM (≈ 19.2 µg/mL) | 7.90 | – |
| Cc1c(C(=O)Nc2ccc(F)cc2)c2n(c1C(=O)C(=O)NC1(c3cnnn3C)CC(F)(F)C1)CCC2 [Example 7, 5-(2-((3,3-difluoro-1-(1-methyl-1H-1,2,3-triazol-5-yl)cyclobutyl)amino)-2-oxoacetyl)-N-(4-fluorophenyl)-6-methyl-2,3-dihydro-1H-pyrrolizine-7-carboxamide] | – | – | 7.75 | – |
| CNC(=O)C1(NC(=O)C(=O)c2c(C)c(C(=O)Nc3ccnc(C(F)F)c3F)c3n2CCC3)CC(F)(F)C1 [Example 20, 5-(2-((3,3-difluoro-1-(methylcarbamoyl)cyclobutyl)amino)-2-oxoacetyl)-N-(2-(difluoromethyl)-3-fluoropyridin-4-yl)-6-methyl-2,3-dihydro-1H-pyrrolizine-7-carboxamide] | 28 µM (≈ 14.8 µg/mL) | 26.3 µM (≈ 13.9 µg/mL) | 6.30 | – |
| O=C(NC1(c2c[nH]nn2)CC(F)(F)C1)C(=O)c1c(Cl)c(C(=O)Nc2ccc(F)c(F)c2)c2n1CCC2 [Example 54, 6-chloro-5-(2-((3,3-difluoro-1-(1H-1,2,3-triazol-4-yl)cyclobutyl)amino)-2-oxoacetyl)-N-(3,4-difluorophenyl)-2,3-dihydro-1H-pyrrolizine-7-carboxamide] | – | – | 8.80 | – |
| CNC(=O)C1(NC(=O)C(=O)c2c(C)c(C(=O)Nc3ccc(F)c(C#N)c3)c3n2CCC3)CC(F)(F)C1 [Example 28, N-(3-cyano-4-fluorophenyl)-5-(2-((3,3-difluoro-1-(methylcarbamoyl)cyclobutyl)amino)-2-oxoacetyl)-6-methyl-2,3-dihydro-1H-pyrrolizine-7-carboxamide] | 25.3 µM (≈ 12.7 µg/mL) | 55.7 µM (≈ 27.9 µg/mL) | 6.53 | – |
| Cc1c(C(=O)Nc2ccc(F)c(F)c2)c2n(c1C(=O)C(=O)NC1(c3cnn[nH]3)CC(F)(F)C1)C[C@H]1C[C@@H]21 [Example 25, (1aS,6bR)-4-(2-((3,3-difluoro-1-(1H-1,2,3-triazol-5-yl)cyclobutyl)amino)-2-oxoacetyl)-N-(3,4-difluorophenyl)-5-methyl-1,1a,2,6b-tetrahydrocyclopropa[a]pyrrolizine-6-carboxamide] | 65 µM (≈ 33.6 µg/mL) | 72.6 µM (≈ 37.5 µg/mL) | 8.72 | – |
| O=C(NC1(c2nncs2)CC1)C(=O)c1c(Cl)c(C(=O)Nc2ccc(F)c(F)c2)c2n1CCC2 [Example 52, 5-(2-((1-(1,3,4-thiadiazol-2-yl)cyclopropyl)amino)-2-oxoacetyl)-6-chloro-N-(3,4-difluorophenyl)-2,3-dihydro-1H-pyrrolizine-7-carboxamide] | – | – | 7.96 | – |
| O=C(NC1(c2c[nH]nn2)CC(F)(F)C1)C(=O)c1c(Cl)c(C(=O)Nc2ccc(F)c(C(F)F)c2)c2n1CCC2 [Example 55, 6-chloro-5-(2-((3,3-difluoro-1-(1H-1,2,3-triazol-4-yl)cyclobutyl)amino)-2-oxoacetyl)-N-(3-(difluoromethyl)-4-fluorophenyl)-2,3-dihydro-1H-pyrrolizine-7-carboxamide] | – | – | 8.52 | – |
| O=C(NC1(c2c[nH]nn2)CC1)C(=O)c1c(Cl)c(C(=O)Nc2ccc(F)c(C(F)F)c2)c2n1CCC2 [Example 56] | – | – | 7.52 | – |
| Cc1c(C(=O)Nc2ccc(F)c(F)c2)c2n(c1C(=O)C(=O)NC1(c3cn(C[Si](C)(C)C)nn3)CC1)CCC2 [Example 12] | – | – | – | pEC50 ([2]; Hepatitis B virus, HepG2, 120 h): 7.03 |
| Cc1c(C(=O)Nc2ccc(F)c(F)c2)c2n(c1C(=O)C(=O)N[C@@](C)(C(N)=O)C(F)(F)F)CCC2 [Example 48, (S)-5-(2-((3-amino-1,1,1-trifluoro-2-methyl-3-oxopropan-2-yl)amino)-2-oxoacetyl)-N-(3,4-difluorophenyl)-6-methyl-2,3-dihydro-1H-pyrrolizine-7-carboxamide] | – | – | 7.19 | – |
| COCc1cc(NC(=O)c2c(C)c(C(=O)C(=O)NC3(c4nncs4)CC(F)(F)C3)n3c2CCC3)ccc1F [Example 50] | – | – | 7.48 | – |
| Cc1c(C(=O)Nc2ccc(F)c(F)c2)c2n(c1C(=O)C(=O)N[C@](C)(C(N)=O)C(F)(F)F)CCC2 [Example 47, (R)-5-(2-((3-amino-1,1,1-trifluoro-2-methyl-3-oxopropan-2-yl)amino)-2-oxoacetyl)-N-(3,4-difluorophenyl)-6-methyl-2,3-dihydro-1H-pyrrolizine-7-carboxamide] | – | – | 7.27 | – |
| COCc1cc(NC(=O)c2c(C)c(C(=O)C(=O)NC3(c4c[nH]nn4)CC(F)(F)C3)n3c2CCC3)ccc1F [Example 51] | – | – | 7.35 | – |
| O=C(NC1(c2c[nH]nn2)CC1)C(=O)c1c(Cl)c(C(=O)Nc2ccc(F)c(F)c2)c2n1CCC2 [Example 53, 5-(2-((1-(1H-1,2,3-triazol-4-yl)cyclopropyl)amino)-2-oxoacetyl)-6-chloro-N-(3,4-difluorophenyl)-2,3-dihydro-1H-pyrrolizine-7-carboxamide] | – | – | 8.16 | – |
